Measurements: patent US20110059909A1, “METHODS FOR TREATING INFLAMMATORY DISORDERS” (priority 2004, published 2011)

Columns and labels:
ERK1/2 = ERK1/2 activation at the lesion epicenter following SCI; format: in vivo, rat
Description: The protein concentration of samples was determined with the detergent compatible protein assay reagent (Bio-Rad Laboratories, CA) using bovine serum albumin (BSA) as the standard. Sample was boiled for 3 min with 0.1 volumes of 10% β-mercaptoethanol and 0.5% bromophenol blue mix. Fifty μg of total cellular protein was resolved by electrophoresis on 8 or 12% polyacrylamide gels, electro-transferred to polyvinylidene difluoride (PVDF) filter and blocked with Tween 20 containing Tris-buffered saline (TBST; 10 mM Trizma base-pH 7.4, 1% Tween 20, and 150 mM NaCl) with 5% skim milk. After incubation with antiserum against iNOS (BD PharMingen, CA), rat GalT-2 (Abjent Inc., CA), H-Ras (Upstate Biotechnology, CA), GFAP (Santa Cruz Biotech, CA), or phospho-specific ERK1/2 (Cell signaling Tech Inc., MA), or pIκ-B (Signal Transduction), in PVDF buffer for 2 h at room temperature, the filters were washed 3 times with TBST buffer and then incubated with horseradish peroxidase conjugated anti-rabbit or mouse IgG for 1 h. The membranes were detected by autoradiography using ECL-plus (Amersham Pharmacia Biotech) after washing with TBST buffer.

[1] = system: primary cultured rat neocortical explants; settings: cited from earlier work
rat SCI model [2] = assay: BBB locomotor rating, rat SCI model; format: in vivo
Text: (§1) Sprague-Dawley female rats (225-250 g weight) were purchased (Harlan laboratories, Durham, N.C.) for induction of SCI. All rats were given water and food pellets ad libitum and maintained in accordance with the ‘Guide for the Care and Use of Laboratory Animals’ of the US Department of Health and Human Services (National Institutes of Health, Bethesda, Md., USA). The inventors have used a clinically relevant weight-drop device for the induction of SCI in rats as described earlier (Gruner, 1992). Briefly, rats were anesthetized by intraperitoneal (i.p.) administration of ketamine (80 mg/kg) plus xylazine (10 mg/kg) followed by laminectomy at T12. While the spine was immobilized with a stereotactic device, injury (30 g/cm force) was induced by dropping a weight of 5 gm from a height of 6 cm onto an impounder gently placed on the spinal cord. Sham operated animals underwent laminectomy only. Upon recovery from anesthesia, animals were evaluated neurologically and monitored for food and water intake. However, no prophylactic antibiotics or analgesics were used in order to avoid their possible interactions with the experimental therapy of SCI.
Assessment of neurological (functional) recovery was performed by an open-field test using the 21-point Basso, Beattie, Bresnahan (BBB) locomotor rating scale (Basso et al., 1996) until Day 15 post-SCI. […]

iNOS = iNOS expression at the lesion epicenter following SCI
TNFα = TNFα expression at the lesion epicenter following SCI
rat SCI model [3] = assay: Histology (H&E) and myelin (LFB-PAS) of spinal cord sections, rat SCI model; format: in vivo
Text: as §1
Rats were anesthetized and sacrificed by decapitation.

IL-1β = IL-1β expression at the lesion epicenter following SCI
PI-3K = assay: PI-3 kinase activity assay; format: cell-based, rat; settings: exogenous lipid
Description: Cells after stimulation in serum-free DMEM/F-12 were lysed with ice-cold lysis buffer containing 1% (vol/vol) NP-40,100 mM NaCl, 20 mM Tris (pH 7.4), 10 mM iodoacetamide, 10 mM NaF, 1 mM sodium orthovanadate, 1 mM […], 1 μg/ml leupeptin, 1 μg/ml antipain, 1 mg/ml aprotinin, and 1 μg/ml pepstatin A. Lysates were incubated at 4° C. for 15 min, followed by centrifugation at 13,000 g for 15 min. The supernatant was pre-cleared with protein G-Sepharose beads (Pharmacia Biotech) for 1 h at 4° C. followed by the addition of 1 μg/ml p85α monoclonal antibody. After 2 h of incubation at 4° C., protein G-Sepharose beads were added and the resulting mixture was further incubated for 1 h at 4° C. The immunoprecipitates were washed twice with lysis buffer, once with phosphate-buffered saline (PBS), once with 0.5 M LiCl and 100 mM Tris (pH 7.6), once in water, and once in kinase buffer (5 mM MgCl2, 0.25 mM EDTA, 20 mM HEPES, pH 7.4). PI-3kinase activity was determined as already described (Ward et al., 1992; Pahan et al., 1999) using a lipid mixture of 100 μl of 0.1 mg/ml PI and 0.1 mg/ml phosphatidylserine dispersed by sonication in 20 mM HEPES (pH 7.0) and 1 mM EDTA. The reaction was initiated by the addition of 20 of [γ-32P] […]

Row | Molecule | Activated ERK1/2, double immunofluorescence (ERK1/2; 24 h following injury) | Chronic ERK1/2 activation (immunoblot, pERK/ERK) (ERK1/2; PDMP 20 mg/kg post-SCI) | GSL biosynthesis [1] | BBB score (rat SCI model [2]; Day 3 post-SCI, PDMP 20 mg/kg i.p. at 10 min, 24 h, 48 h, 72 h) | BBB score (rat SCI model [2]; Day 15 post-SCI, PDMP treatment stopped at Day 3) | iNOS mRNA (real time PCR) and protein expression (iNOS; 12 h following SCI) | iNOS expression, double immunofluorescence (iNOS; 24 h post-SCI) | TNFα mRNA levels (TNFα; 1 h post-SCI) | TNFα protein levels, immunofluorescence (TNFα; post-SCI (sections extracted 1 h)) | Demyelination at the lesion epicenter (rat SCI model [3]; Day 2 and 3 post-SCI) | Tissue necrosis at the lesion epicenter (rat SCI model [3]; Day 2 and 3 post-SCI) | SCI induced white matter vacuolization and tissue necrosis (rat SCI model [3]; PDMP 20 mg/kg i.p. post-SCI, tissue analyzed 24 h post-SCI) | Protection against tissue destruction (rat SCI model [3]; PDMP given 12 h post-SCI, tissue analyzed 24 h post-SCI) | Demyelination (LFB staining) (rat SCI model [3]; PDMP treatment until 12 h post-SCI, 24 h post-SCI) | IL-1β mRNA levels (IL-1β; 4 h post-SCI) | IL-1β protein levels, immunofluorescence (IL-1β; post-SCI (sections extracted 4 h)) | Reversal of DMS-mediated inhibition of PI-3K activation (PI-3K)
1 | CCCCCCCCCC(=O)NC(CN1CCOCC1)C(O)c1ccccc1.Cl [PDMP, D-threo-1-Phenyl-2-decanoylamino-3-morpholino-1-propanol.HCl] | significantly attenuated | effectively attenuates | inhibited | 6.9±0.2 | 13.9±0.1 | markedly suppressed | significantly reduced | markedly inhibited | significantly suppressed | reduced | reduced | markedly decreased | substantial amount of protection | attenuated | markedly inhibited | significantly suppressed | –
2 | Lactosylceramide [LacCer] | – | – | – | – | – | – | – | – | – | – | – | – | – | – | – | – | could not reverse
